Source: PMC4412093, “Identification of a Novel Series of Potent TrkA Receptor Tyrosine Kinase Inhibitors” (International Journal of Medicinal Chemistry, 2012)

Columns and labels:
TrkA human enzyme = TrkA human enzyme (Homo sapiens, UniProt P04629); assay: TrkA kinase enzyme inhibition; format: biochemical; conditions: for inhibition at 0.1 µM / inhibition at 0.03 µM: average of ≥3 experiments; for inhibition at 0.1 µM: read-out: TrkA % inh. at 0.1 μM; for IC50: average of ≥2 experiments; for inhibition at 0.03 µM: 30 nM, read-out: TrkA % inh. at 30 nM
TrkA human enzyme, sequence (P04629 33-796): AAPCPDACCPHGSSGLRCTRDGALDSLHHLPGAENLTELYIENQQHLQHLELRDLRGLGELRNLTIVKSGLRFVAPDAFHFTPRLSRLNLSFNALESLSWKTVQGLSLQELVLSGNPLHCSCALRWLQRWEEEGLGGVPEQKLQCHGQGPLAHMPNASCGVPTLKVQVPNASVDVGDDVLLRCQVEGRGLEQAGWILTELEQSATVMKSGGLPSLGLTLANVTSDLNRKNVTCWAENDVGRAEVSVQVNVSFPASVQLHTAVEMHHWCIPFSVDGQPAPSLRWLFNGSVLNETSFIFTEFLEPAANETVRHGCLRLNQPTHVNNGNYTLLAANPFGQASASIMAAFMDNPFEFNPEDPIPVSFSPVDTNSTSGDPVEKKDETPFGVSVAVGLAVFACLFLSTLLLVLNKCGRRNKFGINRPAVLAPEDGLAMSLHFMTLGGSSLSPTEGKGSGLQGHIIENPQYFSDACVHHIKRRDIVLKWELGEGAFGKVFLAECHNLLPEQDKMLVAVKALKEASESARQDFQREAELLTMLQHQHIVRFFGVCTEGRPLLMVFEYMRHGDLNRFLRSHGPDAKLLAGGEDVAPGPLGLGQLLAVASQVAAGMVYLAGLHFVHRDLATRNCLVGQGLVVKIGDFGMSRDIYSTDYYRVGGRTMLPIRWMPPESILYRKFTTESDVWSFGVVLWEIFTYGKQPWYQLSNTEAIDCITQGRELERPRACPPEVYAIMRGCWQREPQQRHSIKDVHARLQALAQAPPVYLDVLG

c-Met [1] = biological target: T1, c-Met (Homo sapiens, UniProt P08581); assay: c-Met kinase enzyme inhibition; format: biochemical; conditions: average of ≥3 experiments
T1 sequence (P08581 25-1390): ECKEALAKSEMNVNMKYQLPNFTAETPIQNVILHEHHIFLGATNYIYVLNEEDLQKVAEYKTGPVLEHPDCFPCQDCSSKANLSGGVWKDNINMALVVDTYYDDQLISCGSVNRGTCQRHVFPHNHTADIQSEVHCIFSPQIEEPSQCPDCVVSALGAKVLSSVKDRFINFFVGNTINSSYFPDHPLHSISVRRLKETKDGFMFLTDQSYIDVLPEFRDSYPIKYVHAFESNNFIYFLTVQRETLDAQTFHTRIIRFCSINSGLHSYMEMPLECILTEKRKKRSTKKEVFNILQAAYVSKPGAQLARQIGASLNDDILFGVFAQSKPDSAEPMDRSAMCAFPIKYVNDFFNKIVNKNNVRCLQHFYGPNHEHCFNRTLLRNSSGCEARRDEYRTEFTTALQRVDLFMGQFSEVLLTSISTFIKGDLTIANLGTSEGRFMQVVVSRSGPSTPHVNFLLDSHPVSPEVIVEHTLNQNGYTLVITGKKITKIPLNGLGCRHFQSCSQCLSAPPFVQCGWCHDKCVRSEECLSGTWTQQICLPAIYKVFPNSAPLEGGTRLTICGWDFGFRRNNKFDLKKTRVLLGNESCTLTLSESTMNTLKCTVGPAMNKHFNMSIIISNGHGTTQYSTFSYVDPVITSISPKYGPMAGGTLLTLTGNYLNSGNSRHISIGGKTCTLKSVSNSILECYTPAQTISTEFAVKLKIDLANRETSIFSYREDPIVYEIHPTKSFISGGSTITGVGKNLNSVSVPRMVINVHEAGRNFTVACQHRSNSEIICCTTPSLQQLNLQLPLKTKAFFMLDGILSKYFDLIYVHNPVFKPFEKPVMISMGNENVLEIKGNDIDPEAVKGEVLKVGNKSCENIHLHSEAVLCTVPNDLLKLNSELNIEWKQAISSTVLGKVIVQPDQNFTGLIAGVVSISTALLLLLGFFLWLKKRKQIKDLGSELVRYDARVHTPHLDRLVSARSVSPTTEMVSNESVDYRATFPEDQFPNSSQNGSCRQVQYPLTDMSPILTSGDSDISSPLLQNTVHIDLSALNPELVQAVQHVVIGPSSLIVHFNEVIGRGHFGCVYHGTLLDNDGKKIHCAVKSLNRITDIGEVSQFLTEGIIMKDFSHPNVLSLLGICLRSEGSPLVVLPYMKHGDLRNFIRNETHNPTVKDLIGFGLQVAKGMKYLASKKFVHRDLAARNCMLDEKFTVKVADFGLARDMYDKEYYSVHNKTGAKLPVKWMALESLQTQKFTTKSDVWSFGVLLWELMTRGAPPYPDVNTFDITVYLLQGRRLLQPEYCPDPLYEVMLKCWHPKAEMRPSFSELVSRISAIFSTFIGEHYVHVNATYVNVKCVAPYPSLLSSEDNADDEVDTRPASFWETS
Source text: (§1) Table 1 2-Oxo-3-phenylimidazolidine-1-carboxamide kinase inhibitors based on different scaffolds.

VEGFR2 = VEGFR2 (Homo sapiens, UniProt P35968); assay: VEGFR2 kinase enzyme inhibition; format: biochemical; conditions: average of ≥3 experiments
VEGFR2, sequence (P35968 20-1356, species assumed): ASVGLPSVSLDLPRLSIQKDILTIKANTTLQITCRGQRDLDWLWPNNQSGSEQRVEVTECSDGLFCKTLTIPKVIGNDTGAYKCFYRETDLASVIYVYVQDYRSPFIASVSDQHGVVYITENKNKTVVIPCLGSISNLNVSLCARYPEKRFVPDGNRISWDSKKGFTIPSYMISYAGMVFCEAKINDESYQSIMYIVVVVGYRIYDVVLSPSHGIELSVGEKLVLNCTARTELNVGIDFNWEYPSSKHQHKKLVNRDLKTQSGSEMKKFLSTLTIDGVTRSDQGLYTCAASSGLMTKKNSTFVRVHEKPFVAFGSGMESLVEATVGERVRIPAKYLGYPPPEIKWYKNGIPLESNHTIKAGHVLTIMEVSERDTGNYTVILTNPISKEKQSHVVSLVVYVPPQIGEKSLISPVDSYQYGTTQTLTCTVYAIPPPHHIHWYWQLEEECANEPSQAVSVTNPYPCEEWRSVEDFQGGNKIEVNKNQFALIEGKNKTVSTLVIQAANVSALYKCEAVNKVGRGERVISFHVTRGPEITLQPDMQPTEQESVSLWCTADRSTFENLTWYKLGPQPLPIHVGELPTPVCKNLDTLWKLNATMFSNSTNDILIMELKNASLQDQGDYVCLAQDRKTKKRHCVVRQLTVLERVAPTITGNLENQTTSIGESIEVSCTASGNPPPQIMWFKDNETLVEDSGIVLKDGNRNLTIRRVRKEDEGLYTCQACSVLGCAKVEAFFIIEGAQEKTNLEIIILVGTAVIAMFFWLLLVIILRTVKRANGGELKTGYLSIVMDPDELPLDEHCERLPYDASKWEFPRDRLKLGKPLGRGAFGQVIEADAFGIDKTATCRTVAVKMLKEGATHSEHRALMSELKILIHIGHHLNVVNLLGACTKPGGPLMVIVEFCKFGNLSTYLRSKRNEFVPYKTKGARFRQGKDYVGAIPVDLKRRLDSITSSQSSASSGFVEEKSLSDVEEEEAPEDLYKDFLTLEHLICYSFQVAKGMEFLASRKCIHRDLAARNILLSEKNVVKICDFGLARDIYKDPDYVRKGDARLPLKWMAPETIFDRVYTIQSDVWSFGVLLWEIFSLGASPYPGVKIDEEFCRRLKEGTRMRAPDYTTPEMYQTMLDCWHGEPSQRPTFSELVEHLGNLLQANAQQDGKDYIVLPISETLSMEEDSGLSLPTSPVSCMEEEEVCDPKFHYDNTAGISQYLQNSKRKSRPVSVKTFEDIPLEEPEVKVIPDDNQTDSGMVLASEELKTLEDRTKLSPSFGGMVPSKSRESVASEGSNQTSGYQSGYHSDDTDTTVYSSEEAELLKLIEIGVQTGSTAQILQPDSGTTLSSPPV
Source text: as §1

TrkA [2] = conditions: read-out: TrkA IC50 (reported); cited from earlier work
Flt3 = biological target: T2, Flt3 (Homo sapiens, UniProt P36888); assay: Millipore Kinaseprofiler, Flt3; format: biochemical; conditions: tested at 100 nM
T2 construct: purchased Millipore (Kinaseprofiler assay service)
T2 sequence (P36888 27-993): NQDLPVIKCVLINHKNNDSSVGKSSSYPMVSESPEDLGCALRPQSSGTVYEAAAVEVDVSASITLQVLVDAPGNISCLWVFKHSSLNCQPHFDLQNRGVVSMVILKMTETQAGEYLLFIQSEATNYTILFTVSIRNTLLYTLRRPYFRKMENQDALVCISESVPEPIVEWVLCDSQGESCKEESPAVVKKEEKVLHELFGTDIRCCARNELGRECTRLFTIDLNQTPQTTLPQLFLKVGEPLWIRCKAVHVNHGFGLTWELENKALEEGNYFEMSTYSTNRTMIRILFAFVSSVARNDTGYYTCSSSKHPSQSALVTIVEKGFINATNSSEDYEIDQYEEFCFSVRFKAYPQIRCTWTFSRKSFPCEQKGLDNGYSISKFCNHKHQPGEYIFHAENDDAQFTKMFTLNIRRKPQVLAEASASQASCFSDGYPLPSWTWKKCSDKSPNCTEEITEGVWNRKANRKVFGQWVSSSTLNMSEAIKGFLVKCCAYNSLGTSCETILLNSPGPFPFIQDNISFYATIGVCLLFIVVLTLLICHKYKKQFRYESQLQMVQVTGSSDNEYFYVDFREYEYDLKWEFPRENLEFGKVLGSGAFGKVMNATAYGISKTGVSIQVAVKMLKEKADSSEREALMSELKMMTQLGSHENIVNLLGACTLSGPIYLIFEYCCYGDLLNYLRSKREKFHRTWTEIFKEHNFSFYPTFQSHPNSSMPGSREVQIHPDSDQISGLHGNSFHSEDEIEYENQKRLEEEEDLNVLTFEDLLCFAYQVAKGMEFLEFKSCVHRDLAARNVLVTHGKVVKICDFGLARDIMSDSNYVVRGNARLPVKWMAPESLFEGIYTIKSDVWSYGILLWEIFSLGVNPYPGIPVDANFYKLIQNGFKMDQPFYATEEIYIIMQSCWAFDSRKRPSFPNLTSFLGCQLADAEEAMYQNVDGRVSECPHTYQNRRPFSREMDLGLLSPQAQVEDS
Method: (§2) Compound 5 was profiled and tested at 100 nM against 24 other kinase enzymes using Millipore's Kinaseprofiler assay services.

c-Met [3] = biological target: T1, c-Met; assay: Millipore Kinaseprofiler, c-Met; format: biochemical; design: purchased Millipore (Kinaseprofiler assay service); conditions: tested at 100 nM
Method: as §2

Haspin = biological target: T3, Haspin (Homo sapiens, UniProt Q8TF76); assay: Millipore Kinaseprofiler, Haspin; format: biochemical; conditions: tested at 100 nM
T3 construct: purchased Millipore (Kinaseprofiler assay service)
Method: as §2

LIMK1 = biological target: T4, LIMK1 (Homo sapiens, UniProt P53667); assay: Millipore Kinaseprofiler, LIMK1; format: biochemical; conditions: tested at 100 nM
T4 construct: purchased Millipore (Kinaseprofiler assay service)
Method: as §2

IKKβ = biological target: T5, IKKβ (Homo sapiens, UniProt O14920); assay: Millipore Kinaseprofiler, IKKβ; format: biochemical; conditions: tested at 100 nM
T5 construct: purchased Millipore (Kinaseprofiler assay service)
Method: as §2

CHK1 = biological target: T6, CHK1 (Homo sapiens, UniProt O14757); assay: Millipore Kinaseprofiler, CHK1; format: biochemical; conditions: tested at 100 nM
T6 construct: purchased Millipore (Kinaseprofiler assay service)
Method: as §2

JAK2 = biological target: T7, JAK2 (Homo sapiens, UniProt O60674); assay: Millipore Kinaseprofiler, JAK2; format: biochemical; conditions: tested at 100 nM
T7 construct: purchased Millipore (Kinaseprofiler assay service)
Method: as §2

Tie2 = biological target: T8, Tie2 (Homo sapiens, UniProt Q02763); assay: Millipore Kinaseprofiler, Tie2; format: biochemical; conditions: tested at 100 nM
T8 construct: purchased Millipore (Kinaseprofiler assay services)
Method: as §2

EphB4 = biological target: T9, EphB4 (Homo sapiens, UniProt P54760); assay: Millipore Kinaseprofiler, EphB4; format: biochemical; conditions: tested at 100 nM
T9 construct: purchased Millipore (Kinaseprofiler assay service)
Method: as §2

ALK = biological target: T10, ALK (Homo sapiens, UniProt Q9UM73); assay: Millipore Kinaseprofiler, ALK; format: biochemical; conditions: tested at 100 nM
T10 construct: purchased Millipore (Kinaseprofiler assay service)
Method: as §2

Bmx = biological target: T11, Bmx (Homo sapiens, UniProt P51813); assay: Millipore Kinaseprofiler, Bmx; format: biochemical; conditions: tested at 100 nM
T11 construct: purchased Millipore (Kinaseprofiler assay service)
Method: as §2

PKBα = biological target: T12, PKBα (Homo sapiens, UniProt P31749); assay: Millipore Kinaseprofiler, PKBα; format: biochemical; conditions: tested at 100 nM
T12 construct: purchased Millipore (Kinaseprofiler assay service)
Method: as §2

[4] = Rat pharmacokinetic profile; format: in vivo
Source text: Compound 5 was further evaluated for its pharmacokinetic properties in the rat (Table 5).

JAK3 = biological target: T13, JAK3 (Homo sapiens, UniProt P52333); assay: Millipore Kinaseprofiler, JAK3; format: biochemical; conditions: tested at 100 nM
T13 construct: purchased Millipore (Kinaseprofiler assay service)
Method: as §2

c-Raf = biological target: T14, c-Raf (Homo sapiens, UniProt P04049); assay: Millipore Kinaseprofiler, c-Raf; format: biochemical; conditions: tested at 100 nM
T14 construct: purchased Millipore (Kinaseprofiler assay service)
Method: as §2

Pim-1 = biological target: T15, Pim-1 (Homo sapiens, UniProt P11309); assay: Millipore Kinaseprofiler, Pim-1; format: biochemical; conditions: tested at 100 nM
T15 construct: purchased Millipore (Kinaseprofiler assay service)
T15 sequence (P11309 whole entry): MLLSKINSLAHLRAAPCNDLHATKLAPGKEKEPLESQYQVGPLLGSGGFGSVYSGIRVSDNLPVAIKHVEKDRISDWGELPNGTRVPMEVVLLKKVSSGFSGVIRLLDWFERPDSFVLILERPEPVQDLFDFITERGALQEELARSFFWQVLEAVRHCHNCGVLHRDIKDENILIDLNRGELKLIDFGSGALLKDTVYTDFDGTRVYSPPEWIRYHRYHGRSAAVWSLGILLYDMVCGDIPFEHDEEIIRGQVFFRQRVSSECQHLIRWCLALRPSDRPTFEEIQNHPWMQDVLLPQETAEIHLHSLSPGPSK
Method: as §2

TrkB = TrkB (Homo sapiens, UniProt Q16620); assay: TrkB kinase inhibition; format: biochemical; conditions: tested at 10 nM
Method: as §2

PI3-Kinaseβ = biological target: T16, PI3-Kinaseβ (Homo sapiens, UniProt P42338); assay: Millipore Kinaseprofiler, PI3-Kinaseβ; format: biochemical; conditions: tested at 100 nM
T16 construct: purchased Millipore (Kinaseprofiler assay service)
Method: as §2

Ron = biological target: T17, Ron (Homo sapiens, UniProt Q04912); assay: Millipore Kinaseprofiler, Ron; format: biochemical; conditions: tested at 100 nM
T17 construct: purchased Millipore (Kinaseprofiler assay service)
Method: as §2

PDK1 = biological target: T18, PDK1 (Homo sapiens, UniProt O15530); assay: Millipore Kinaseprofiler, PDK1; format: biochemical; conditions: tested at 100 nM
T18 construct: purchased Millipore (Kinaseprofiler assay service)
Method: as §2

FAK = biological target: T19, FAK (Homo sapiens, UniProt Q05397); assay: Millipore Kinaseprofiler, FAK; format: biochemical; conditions: tested at 100 nM
T19 construct: purchased Millipore (Kinaseprofiler assay service)
Method: as §2

MEK1 = biological target: T20, MEK1 (Homo sapiens, UniProt Q02750); assay: Millipore Kinaseprofiler, MEK1; format: biochemical; conditions: tested at 100 nM
T20 construct: purchased Millipore (Kinaseprofiler assay service)
Method: as §2

GSK3β = biological target: T21, GSK3β (Homo sapiens, UniProt P49841); assay: Millipore Kinaseprofiler, GSK3β; format: biochemical; conditions: tested at 100 nM
T21 construct: purchased Millipore (Kinaseprofiler assay service)
Method: as §2

cKit = biological target: T22, cKit (Homo sapiens, UniProt P10721); assay: Millipore Kinaseprofiler, cKit; format: biochemical; conditions: tested at 100 nM
T22 construct: purchased Millipore (Kinaseprofiler assay service)
Method: as §2

Ret = biological target: T23, Ret (Homo sapiens, UniProt P07949); assay: Millipore Kinaseprofiler, Ret; format: biochemical; conditions: tested at 100 nM
T23 construct: purchased Millipore (Kinaseprofiler assay service)
Method: as §2

TrkA [5] = system: TrkA; design: method as in PMID 18646745, PMID 19509272; conditions: read-out: TrkA EC50 (reported); cited from earlier work
[6] = p.o. dose 5.25 mg/kg, dose-normalised

## O=C(Nc1cc(Oc2ccc(NC(=O)N3CCN(c4ccccc4)C3=O)cc2F)ccn1)N1CCCC1 [Cpd 4]
TrkA human enzyme
  inhibition at 0.1 µM: 49%
c-Met [1]
  IC50: 30 nM
VEGFR2
  IC50: 230 nM

## O=C(NCCN1CCCC1)Nc1ccc(Oc2cccc(NC(=O)N3CCN(c4ccc(F)cc4)C3=O)c2)cn1 [Cpd 17]
TrkA human enzyme
  IC50: 4 nM

## CNC(=O)Nc1ccc(Oc2cccc(NC(=O)N3CCN(c4ccc(F)cc4)C3=O)c2)cn1 [Cpd 16]
TrkA human enzyme
  IC50: 2 nM

## CC(=O)Nc1ccc(Oc2cc(NC(=O)N3CCN(c4ccccc4)C3=O)ccc2C)cn1 [Cpd 10]
TrkA human enzyme
  inhibition at 0.03 µM: 6%

## Cc1ccc(Sc2cnc(Nc3cccc(Br)n3)s2)cc1C(=O)N1CCN(C(=O)CN)CC1 [Compound 20h]
TrkA [2]
  IC50: 0.6 nM

## COc1cc2nccc(Oc3ccc(NC(=O)N4CCN(c5ccccc5)C4=O)cc3F)c2cc1OC [Cpd 2]
TrkA human enzyme
  inhibition at 0.1 µM: 94%
c-Met [1]
  IC50: 30 nM
VEGFR2
  IC50: 10 nM

## CC(=O)Nc1ccc(NC(=O)Nc2cccc(NC(=O)N3CCN(c4ccccc4)C3=O)c2)cn1 [Cpd 6]
TrkA human enzyme
  inhibition at 0.03 µM: 5%

## CC(=O)Nc1ccc(Oc2ccc(Cl)c(NC(=O)N3CCN(c4ccccc4)C3=O)c2)cn1 [Cpd 12]
TrkA human enzyme
  inhibition at 0.03 µM: 0%

## COc1ccc(NC(=O)N2CCN(c3ccccc3)C2=O)cc1Oc1ccc(NC(C)=O)nc1 [Cpd 11]
TrkA human enzyme
  inhibition at 0.03 µM: 15%

## CC(=O)Nc1ccc(Oc2cccc(NC(=O)N3CCN(c4ccccc4)C3=O)c2)cn1 [Cpd 5]
Flt3
  inhibition at 0.1 µM: 83%
c-Met [3]
  inhibition at 0.1 µM: < 40%
Haspin
  inhibition at 0.1 µM: < 40%
LIMK1
  inhibition at 0.1 µM: < 40%
IKKβ
  inhibition at 0.1 µM: < 40%
CHK1
  inhibition at 0.1 µM: < 40%
TrkA human enzyme
  inhibition at 0.03 µM: 96%
  inhibition at 0.1 µM: 98%
  IC50: 4 nM
JAK2
  inhibition at 0.1 µM: < 40%
Tie2
  inhibition at 0.1 µM: < 40%
EphB4
  inhibition at 0.1 µM: < 40%
ALK
  inhibition at 0.1 µM: < 40%
c-Met [1]
  IC50: 310 nM
Bmx
  inhibition at 0.1 µM: < 40%
PKBα
  inhibition at 0.1 µM: < 40%
[4]; in vivo, iv, i.v. dose 2.58 mg/kg, read-out: Cl i.v. (converted)
  clearance: 55 mL/min/kg
[4]; in vivo, iv, i.v. dose 2.58 mg/kg, read-out: T1/2, i.v. (converted)
  half-life: 1.5 h
[4]; in vivo, iv, i.v. dose 2.58 mg/kg, read-out: Vss i.v.
  Vd: 3.7 L/kg
[4]; in vivo, oral, i.v. 2.58 mg/kg, p.o. 5.25 mg/kg
  bioavailability: 99%
[4]; in vivo, po, p.o. dose 5.25 mg/kg
  Tmax: 4 h
[4]; [6]
  N. AUC, p.o.: 0.83 μM.h/(mg/kg)
  N. C max, p.o.: 0.08 μM/(mg/kg)
JAK3
  inhibition at 0.1 µM: < 40%
c-Raf
  inhibition at 0.1 µM: < 40%
Pim-1
  inhibition at 0.1 µM: < 40%
TrkB
  inhibition at 0.01 µM: 40%
PI3-Kinaseβ
  inhibition at 0.1 µM: < 40%
VEGFR2
  IC50: 2500 nM
Ron
  inhibition at 0.1 µM: < 40%
PDK1
  inhibition at 0.1 µM: < 40%
FAK
  inhibition at 0.1 µM: < 40%
MEK1
  inhibition at 0.1 µM: < 40%
GSK3β
  inhibition at 0.1 µM: < 40%
cKit
  inhibition at 0.1 µM: < 40%
Ret
  inhibition at 0.1 µM: < 40%

## CNC(=O)Nc1ccc(Oc2cccc(NC(=O)N3CCN(c4ccccc4)C3=O)c2)cn1 [Cpd 15]
TrkA human enzyme
  IC50: 5 nM

## NC(=O)Nc1snc(S[C@@H]2CCCCc3ccccc32)c1C(N)=O [Compound 5n]
TrkA [2]
  IC50: < 1 nM

## CC(=O)Nc1ccc(C#Cc2cccc(NC(=O)N3CCN(c4ccccc4)C3=O)c2)cn1 [Cpd 7]
TrkA human enzyme
  inhibition at 0.03 µM: 16%

## CCNC(=O)OC(C)C1c2ccccc2-c2c3c(c4c([nH]c5ccccc54)c21)CNC3=O (stereo not shown) [Compound 12a]
TrkA [2]
  IC50: 8 nM

## O=C(Nc1cc(Oc2ccc(NC(=O)N3CCN(c4ccccc4)C3=O)cc2F)ncn1)N1CCCC1 [Cpd 3]
TrkA human enzyme
  inhibition at 0.1 µM: 16%
c-Met [1]
  IC50: 50 nM
VEGFR2
  IC50: 150 nM

## CC(=O)Nc1ccc(Oc2cccc(NC(=O)N3CCN(c4ccc(F)cc4)C3=O)c2)cn1 [Cpd 14]
TrkA human enzyme
  IC50: 3 nM

## CCn1cnc(-c2cc3nccc(Oc4ccc(NC(=O)N5CCN(c6ccccc6)C5=O)cc4F)c3s2)c1 [Cpd 1]
TrkA human enzyme
  inhibition at 0.1 µM: 82%
c-Met [1]
  IC50: 20 nM
VEGFR2
  IC50: 10 nM

## Nc1ccc(Oc2cccc(NC(=O)N3CCN(c4ccccc4)C3=O)c2)cn1 [Cpd 13]
TrkA human enzyme
  IC50: 20 nM

## CC(C)Oc1cc(Nc2nc(N[C@@H](C)c3ccc(F)cc3)ncc2Cl)n[nH]1 [AZ-23]
TrkA [2]
  IC50: < 3 nM
TrkA [5]
  EC50: 1 nM
